The target in the experiment is T1, F508del (Homo sapiens, UniProt P13569, DEL508-508).
T1 construct: expressed in transfected cells
In words: Protocol 2: FRET membrane potential optical assay (VIPR), identification of correction compounds. The experiment is classed as cell-based. In a few lines: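 NIH3T3 mouse fibroblasts stably expressing F508del-CFTR incubated with compound 16 h at 37 °C in serum-free medium, then loaded with CC2-DMPE/DiSBAC2(3) FRET dyes. Channel activated with 10 μM forskolin plus 20 μM genistein in Cl⁻-free (gluconate) bath; depolarisation from Cl⁻ efflux read on VIPR II.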

[1] abbreviates: F508del CFTR modulator activity, compounds of Table 1, read-out: EC30.
Where [2] appears, read: Table 3, compounds of Table 1 as modulators of CFTR activity, protocol not stated.

22 molecules from patent publication US10758534B2 (Vertex Pharmaceuticals Incorporated, priority 2014, dated 2020) can be followed below.

Where two headings read alike, the source gives them in different places.

T1 sequence (P13569 with tags, fused parts or gaps DEL508-508): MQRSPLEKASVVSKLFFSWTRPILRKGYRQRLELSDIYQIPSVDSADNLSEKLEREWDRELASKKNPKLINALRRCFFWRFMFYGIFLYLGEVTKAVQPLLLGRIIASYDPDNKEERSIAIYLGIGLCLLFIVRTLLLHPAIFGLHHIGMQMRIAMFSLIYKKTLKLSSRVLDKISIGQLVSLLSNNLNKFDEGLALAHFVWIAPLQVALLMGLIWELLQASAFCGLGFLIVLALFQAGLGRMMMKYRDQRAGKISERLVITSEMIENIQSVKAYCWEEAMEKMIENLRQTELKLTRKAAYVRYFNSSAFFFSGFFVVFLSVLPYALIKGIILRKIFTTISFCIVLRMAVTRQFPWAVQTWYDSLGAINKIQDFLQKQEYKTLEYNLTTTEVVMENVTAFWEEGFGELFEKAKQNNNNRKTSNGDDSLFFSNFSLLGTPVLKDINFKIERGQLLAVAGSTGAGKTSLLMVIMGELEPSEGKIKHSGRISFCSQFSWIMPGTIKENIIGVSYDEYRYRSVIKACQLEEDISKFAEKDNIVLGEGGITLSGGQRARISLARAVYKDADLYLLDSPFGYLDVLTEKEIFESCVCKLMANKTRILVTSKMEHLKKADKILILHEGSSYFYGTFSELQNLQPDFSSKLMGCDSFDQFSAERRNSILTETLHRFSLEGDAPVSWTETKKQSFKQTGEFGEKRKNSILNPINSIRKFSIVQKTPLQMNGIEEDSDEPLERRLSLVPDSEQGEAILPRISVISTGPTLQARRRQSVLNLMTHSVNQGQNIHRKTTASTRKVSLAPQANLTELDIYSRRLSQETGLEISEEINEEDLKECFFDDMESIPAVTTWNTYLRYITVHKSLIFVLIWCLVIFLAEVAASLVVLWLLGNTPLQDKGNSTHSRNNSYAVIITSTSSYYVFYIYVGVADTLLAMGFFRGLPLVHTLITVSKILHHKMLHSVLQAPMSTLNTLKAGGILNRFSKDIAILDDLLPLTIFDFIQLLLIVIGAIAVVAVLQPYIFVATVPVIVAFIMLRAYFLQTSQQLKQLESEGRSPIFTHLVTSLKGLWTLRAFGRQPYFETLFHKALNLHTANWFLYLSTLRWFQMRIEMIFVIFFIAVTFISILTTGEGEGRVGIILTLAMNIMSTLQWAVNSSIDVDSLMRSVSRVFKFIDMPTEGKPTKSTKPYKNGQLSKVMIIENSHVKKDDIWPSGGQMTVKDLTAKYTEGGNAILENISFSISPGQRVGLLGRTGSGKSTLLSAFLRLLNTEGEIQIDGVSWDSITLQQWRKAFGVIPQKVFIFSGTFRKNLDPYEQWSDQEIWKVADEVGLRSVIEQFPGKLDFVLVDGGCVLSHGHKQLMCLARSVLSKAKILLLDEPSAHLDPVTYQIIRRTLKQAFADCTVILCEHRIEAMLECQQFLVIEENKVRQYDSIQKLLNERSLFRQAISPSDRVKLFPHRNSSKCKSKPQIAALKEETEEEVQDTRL

The term EC30 denotes the concentration at which the effect reaches the 30% level. In the case of `COCCCNc1cccc(S(=O)(=O)NC(=O)c2cccnc2N2CC(C)CC2(C)C)n1` (stereo not shown) [Compound 2135, N—[[6-(3-methoxypropylamino)-2-pyridyl]sulfonyl]-2-(2,2,4-trimethylpyrrolidin-1-yl)pyridine-3-carboxamide], the EC30 under setting [1] is 3 to 10 µM. The same measure, in the same setting: with `CC[C@@H](C)Oc1ncc(-c2ccc(C(=O)NS(=O)(=O)c3cccc(N)n3)c(N3C[C@@H](C)CC3(C)C)n2)cc1C` [Compound 2576, N-[(6-amino-2-pyridyl)sulfonyl]-6-[5-methyl-6-[(1R)-1-methylpropoxy]-3-pyridyl]-2-[(4S)-2,2,4-trimethylpyrrolidin-1-yl]pyridine-3-carboxamide] the figure was under 3 µM. On the same count and under the same terms, with `COc1cccc(-c2ccc(C(=O)NS(=O)(=O)c3cccnc3N)c(N3C[C@@H](C)CC3(C)C)n2)c1O` [Compound 2158, N-[(2-amino-3-pyridyl)sulfonyl]-6-(2-hydroxy-3-methoxy-phenyl)-2-[(4S)-2,2,4-trimethylpyrrolidin-1-yl]pyridine-3-carboxamide] the figure was 3 to 10 µM. Consider `CCOc1ccc(-c2ccc(C(=O)NS(=O)(=O)c3nccnc3N)c(N3CCC(C)CC3)n2)cc1` [Compound 507, N-(3-aminopyrazin-2-yl)sulfonyl-6-(4-ethoxyphenyl)-2-(4-methyl-1-piperidyl)pyridine-3-carboxamide], for which the EC30 result under setting [2] was “+++ (“+++” means <3 uM)”. On the same count and under the same terms, with `CC(C)(C)c1ccc(C(=O)NS(=O)(=O)c2cccc(N)n2)c(N2CCCCC2)n1` [Compound 571, N-[(6-amino-2-pyridyl)sulfonyl]-6-tert-butyl-2-(1-piperidyl)pyridine-3-carboxamide] the entry was “++ (“++” means between 3 uM and 10 uM)”. As for `CCCN(CCOC)c1cccc(S(=O)(=O)NC(=O)c2cccnc2N2CC(C)CC2(C)C)n1` (stereo not shown) [Compound 2343, N—[[6-[2-methoxyethyl(propyl)amino]-2-pyridyl]sulfonyl]-2-(2,2,4-trimethylpyrrolidin-1-yl)pyridine-3-carboxamide], under setting [1], the EC30 is under 3 µM. Consider `COc1cccc(-c2ccc(C(=O)NS(=O)(=O)c3cccnc3N)c(N3C[C@@H](C)CC3(C)C)n2)n1` [Compound 2268, N-[(2-amino-3-pyridyl)sulfonyl]-6-(6-methoxy-2-pyridyl)-2-[(4S)-2,2,4-trimethylpyrrolidin-1-yl]pyridine-3-carboxamide], for which, under setting [1], the EC30 is under 3 µM.

`CC(C)COc1cc(F)cc(-c2ccc(C(=O)NS(=O)(=O)c3cccc(N)n3)c(N3CCC4CCCC43)n2)c1` (stereo not shown) [Compound 383, 2-(3,3a,4,5,6,6a-hexahydro-2H-cyclopenta[b]pyrrol-1-yl)-N-[(6-amino-2-pyridyl)sulfonyl]-6-(3-fluoro-5-isobutoxy-phenyl)pyridine-3-carboxamide]: the EC30 result under setting [2] is on record as “+++ (“+++” means <3 uM)”.

Take `CC(C)COc1cc(F)cc(-c2ccc(C(=O)NS(=O)(=O)c3cccc(N)n3)c(C3CC(C)(C)CC3(C)C)n2)c1` (single isomer, unassigned) [Compound 2492, N-[(6-amino-2-pyridyl)sulfonyl]-6-(3-fluoro-5-isobutoxy-phenyl)-2-(2,2,4,4-tetramethylcyclopentyl)pyridine-3-carboxamide]: the EC30 result (F508del CFTR modulator activity, compounds of Table 1) is listed as “+++ (“+++” means <3 uM)”.

Regarding `Cc1cc(C)c(Oc2nc(-c3ccc(C#N)cc3)ccc2C(=O)NS(=O)(=O)c2cccc(N)n2)c(C)c1` [Compound 216, N-[(6-amino-2-pyridyl)sulfonyl]-6-(4-cyanophenyl)-2-(2,4,6-trimethylphenoxy)pyridine-3-carboxamide], the EC30 entry under setting [2] was “+++ (“+++” means <3 uM)”. For `CC1CN(c2ncccc2C(=O)NS(=O)(=O)c2cccc(Nc3cccc(OC(F)(F)F)c3)n2)C(C)(C)C1` (stereo not shown) [Compound 2143, N—[[6-[3-(trifluoromethoxy)anilino]-2-pyridyl]sulfonyl]-2-(2,2,4-trimethylpyrrolidin-1-yl)pyridine-3-carboxamide], the EC30 under setting [1] is under 3 µM. For `CC(C)COc1cc(F)cc(-c2ccc(C(=O)NS(=O)(=O)c3ccn[nH]3)c(N3CCCCC3C)n2)c1` (stereo not shown) [Compound 442, 6-(3-fluoro-5-isobutoxy-phenyl)-2-(2-methyl-1-piperidyl)-N-(1H-pyrazol-5-ylsulfonyl)pyridine-3-carboxamide], under setting [2], the EC30 entry was “+++ (“+++” means <3 uM)”.

For `Cc1cc(C)c(CN2C(C(=O)NS(=O)(=O)c3ccc(C)c(N)c3)c3ccccc3C2(C)C)c(C)c1` (stereo not shown) [Compound 448, N-(3-amino-4-methyl-phenyl)sulfonyl-3,3-dimethyl-2-[(2,4,6-trimethylphenyl)methyl]isoindoline-1-carboxamide], the EC30 entry under setting [2] is given as “+++ (“+++” means <3 uM)”.

On to `COc1cccc(S(=O)(=O)NC(=O)C2c3ccccc3CN2Cc2c(C)cc(C)cc2C)n1` (stereo not shown) [Compound 174, N-[(6-methoxy-2-pyridyl)sulfonyl]-2-[(2,4,6-trimethylphenyl)methyl]isoindoline-1-carboxamide], for which the EC30 entry under setting [2] is “++ (“++” means between 3 uM and 10 uM)”.

As for `CC(C)(C)c1ccc(C(=O)NS(=O)(=O)c2cccc(N)c2)c(-c2ccc3c(c2)CCC3)n1` [Compound 308, N-(3-aminophenyl)sulfonyl-6-tert-butyl-2-indan-5-yl-pyridine-3-carboxamide], the EC30 result under setting [2] is “+++ (“+++” means <3 uM)”. On the same count and under the same terms, in the case of `Cc1cc(C)c(Oc2nc(-c3cc(F)cc(OCC(C)C)c3)ccc2C(=O)NS(=O)(=O)c2cccc(C#N)n2)c(C)c1` [Compound 771, N-[(6-cyano-2-pyridyl)sulfonyl]-6-(3-fluoro-5-isobutoxy-phenyl)-2-(2,4,6-trimethylphenoxy)pyridine-3-carboxamide] it was “+++ (“+++” means <3 uM)”. For `CC1CN(c2ncccc2C(=O)NS(=O)(=O)c2cccc(N3CCN(c4ccccc4)CC3)n2)C(C)(C)C1` (stereo not shown) [Compound 2208, N—[[6-(4-phenylpiperazin-1-yl)-2-pyridyl]sulfonyl]-2-(2,2,4-trimethylpyrrolidin-1-yl)pyridine-3-carboxamide], under setting [1], the EC30 was under 3 µM. As to `Cc1cc(C)c(CN2Cc3ccccc3C2C(=O)NS(=O)(=O)c2ccncc2)c(C)c1` (stereo not shown) [Compound 94, N-(4-pyridylsulfonyl)-2-[(2,4,6-trimethylphenyl)methyl]isoindoline-1-carboxamide], the EC30 entry under setting [2] is listed as “+++ (“+++” means <3 uM)”. For `COc1ccccc1-c1ccc(C(=O)NS(=O)(=O)N2CC[C@H](N)C2)c(N2C[C@@H](C)CC2(C)C)n1` [Compound 2666, N-[(3S)-3-aminopyrrolidin-1-yl]sulfonyl-6-(2-methoxyphenyl)-2-[(4S)-2,2,4-trimethylpyrrolidin-1-yl]pyridine-3-carboxamide], under setting [1], the EC30 fell in the range of 3 to 10 µM. Take `CC(C)COc1cc(F)cc(-c2ccc(C(=O)NS(=O)(=O)c3cccc(N)n3)c(N3C[C@@H](C)CC3(C)C)c2F)c1` [Compound 2634, N-[(6-amino-2-pyridyl)sulfonyl]-3-fluoro-4-(3-fluoro-5-isobutoxy-phenyl)-2-[(4S)-2,2,4-trimethylpyrrolidin-1-yl]benzamide]: under setting [1], the EC30 is under 3 µM. On the same count and under the same terms, in the case of `C[C@@H]1CC[C@H](C)N1c1nc(-n2ccc(-c3ccccc3)n2)ccc1C(=O)NS(=O)(=O)C1CC1` [Compound 2676, N-cyclopropylsulfonyl-2-[(2S,5R)-2,5-dimethylpyrrolidin-1-yl]-6-(3-phenylpyrazol-1-yl)pyridine-3-carboxamide] it was under 3 µM.

As to `Cc1cc(C)c(Cn2c(C(=O)NS(=O)(=O)c3ccccn3)cc3ccccc32)c(C)c1` [Compound 247, N-(2-pyridylsulfonyl)-1-[(2,4,6-trimethylphenyl)methyl]indole-2-carboxamide], the EC30 result under setting [2] is on record as “+++ (“+++” means <3 uM)”.
